Reference: PubChem BioAssay (NCI)
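Following 48 hours of exposure in 96-well plates, responses at five concentrations were used to interpolate endpoints linearly. TGI is the concentration that stops growth completely.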

Key:
Test in all cases: NCI tumour cell line growth inhibition, 48 h
786-0 renal = system: 786-0 renal
A498 renal = system: A498 renal
A549 NSCLC = system: A549 NSCLC
ACHN renal = system: ACHN renal
BT-549 breast = system: BT-549 breast
CAKI-1 renal = system: CAKI-1 renal
CCRF-CEM leukemia = system: CCRF-CEM leukemia
COLO 205 colon = system: COLO 205 colon
DU-145 prostate = system: DU-145 prostate
EKVX NSCLC = system: EKVX NSCLC
HCC-2998 colon = system: HCC-2998 colon
HCT-116 colon = system: HCT-116 colon
HCT-15 colon = system: HCT-15 colon
HL-60(TB) leukemia = system: HL-60(TB) leukemia
HOP-62 NSCLC = system: HOP-62 NSCLC
HOP-92 NSCLC = system: HOP-92 NSCLC
HS 578T breast = system: HS 578T breast
HT29 colon = system: HT29 colon
IGROV1 ovarian = system: IGROV1 ovarian
K-562 leukemia = system: K-562 leukemia
KM12 colon = system: KM12 colon
LOX IMVI melanoma = system: LOX IMVI melanoma
M14 melanoma = system: M14 melanoma
MALME-3M melanoma = system: MALME-3M melanoma
MCF7 breast = system: MCF7 breast
MDA-MB-231 breast = system: MDA-MB-231 breast
MDA-MB-435 = system: MDA-MB-435
MDA-N = system: MDA-N
MOLT-4 leukemia = system: MOLT-4 leukemia
NCI-H226 lung = system: NCI-H226 lung
NCI-H23 lung = system: NCI-H23 lung
NCI-H460 lung = system: NCI-H460 lung
NCI-H522 lung = system: NCI-H522 lung
NCI/ADR-RES ovarian = system: NCI/ADR-RES ovarian
OVCAR-3 ovarian = system: OVCAR-3 ovarian
OVCAR-4 ovarian = system: OVCAR-4 ovarian
OVCAR-5 ovarian = system: OVCAR-5 ovarian
OVCAR-8 ovarian = system: OVCAR-8 ovarian
PC-3 prostate = system: PC-3 prostate
RPMI-8226 leukemia = system: RPMI-8226 leukemia
RXF 393 renal = system: RXF 393 renal
SF-268 CNS = system: SF-268 CNS
SF-295 CNS = system: SF-295 CNS
SF-539 CNS = system: SF-539 CNS
SK-MEL-2 melanoma = system: SK-MEL-2 melanoma
SK-MEL-28 melanoma = system: SK-MEL-28 melanoma
SK-MEL-5 melanoma = system: SK-MEL-5 melanoma
SK-OV-3 ovarian = system: SK-OV-3 ovarian
SN12C renal = system: SN12C renal
SNB-19 CNS = system: SNB-19 CNS
SNB-75 CNS = system: SNB-75 CNS
SR leukemia = system: SR leukemia
SW-620 colon = system: SW-620 colon
T-47D breast = system: T-47D breast
TK-10 renal = system: TK-10 renal
U251 CNS = system: U251 CNS
UACC-257 melanoma = system: UACC-257 melanoma
UACC-62 melanoma = system: UACC-62 melanoma
UO-31 renal = system: UO-31 renal
DLD-1 colon = system: DLD-1 colon
DMS 273 small cell lung = system: DMS 273 small cell lung
HOP-18 NSCLC = system: HOP-18 NSCLC
KM20L2 colon = system: KM20L2 colon
LXFL 529 NSCLC = system: LXFL 529 NSCLC
M19-MEL melanoma = system: M19-MEL melanoma

O=C1C(F)=CC(COC(c2ccccc2)(c2ccccc2)c2ccccc2)OC1n1cc(F)c(=O)[nH]c1=O (stereo not drawn)
TGI (786-0 renal): 3.92 µM
TGI (A498 renal): 24.4 µM
TGI (A549 NSCLC): 6.12 µM
TGI (ACHN renal): 3.08 µM
TGI (BT-549 breast): 4.38 µM
TGI (CAKI-1 renal): 9.09 µM
TGI (CCRF-CEM leukemia): > 32 µM
TGI (COLO 205 colon): > 21.5 µM
TGI (DU-145 prostate): > 34.2 µM
TGI (EKVX NSCLC): > 24.4 µM
TGI (HCC-2998 colon): 14.1 µM
TGI (HCT-116 colon): 10.9 µM
TGI (HCT-15 colon): 5.95 µM
TGI (HL-60(TB) leukemia): 10.2 µM
TGI (HOP-62 NSCLC): 11.6 µM
TGI (HOP-92 NSCLC): 5.52 µM
TGI (HS 578T breast): > 45 µM
TGI (HT29 colon): 1.59 µM
TGI (IGROV1 ovarian): 6.79 µM
TGI (K-562 leukemia): > 100 µM
TGI (KM12 colon): 7.72 µM
TGI (LOX IMVI melanoma): 3.54 µM
TGI (M14 melanoma): 5.03 µM
TGI (MALME-3M melanoma): 31.4 µM
TGI (MCF7 breast): 4.96 µM
TGI (MDA-MB-231 breast): 18.5 µM
TGI (MDA-MB-435): 3.18 µM
TGI (MDA-N): 3.38 µM
TGI (MOLT-4 leukemia): 4.81 µM
TGI (NCI-H226 lung): 5.51 µM
TGI (NCI-H23 lung): 3.91 µM
TGI (NCI-H460 lung): 7.68 µM
TGI (NCI-H522 lung): 3.1 µM
TGI (NCI/ADR-RES ovarian): 8.31 µM
TGI (OVCAR-3 ovarian): 3.21 µM
TGI (OVCAR-4 ovarian): 14.4 µM
TGI (OVCAR-5 ovarian): 4.61 µM
TGI (OVCAR-8 ovarian): 7 µM
TGI (PC-3 prostate): 4.69 µM
TGI (RPMI-8226 leukemia): 1.31 µM
TGI (RXF 393 renal): 4.11 µM
TGI (SF-268 CNS): 12.6 µM
TGI (SF-295 CNS): 5.06 µM
TGI (SF-539 CNS): 3.75 µM
TGI (SK-MEL-2 melanoma): 7.49 µM
TGI (SK-MEL-28 melanoma): 3.5 µM
TGI (SK-MEL-5 melanoma): 3.22 µM
TGI (SK-OV-3 ovarian): 14.4 µM
TGI (SN12C renal): 4.29 µM
TGI (SNB-19 CNS): 12.8 µM
TGI (SNB-75 CNS): 10.9 µM
TGI (SR leukemia): > 100 µM
TGI (SW-620 colon): 4.26 µM
TGI (T-47D breast): > 28.6 µM
TGI (TK-10 renal): 3.43 µM
TGI (U251 CNS): 4.71 µM
TGI (UACC-257 melanoma): 4.72 µM
TGI (UACC-62 melanoma): 3.62 µM
TGI (UO-31 renal): 5.61 µM

COc1ccc(C(N)=O)cc1N=NN(C)C
TGI (786-0 renal): > 100 µM
TGI (A498 renal): > 100 µM
TGI (A549 NSCLC): > 100 µM
TGI (ACHN renal): > 100 µM
TGI (CAKI-1 renal): > 100 µM
TGI (CCRF-CEM leukemia): > 100 µM
TGI (COLO 205 colon): > 100 µM
TGI (DLD-1 colon): > 100 µM
TGI (DMS 273 small cell lung): > 100 µM
TGI (EKVX NSCLC): > 100 µM
TGI (HCC-2998 colon): > 100 µM
TGI (HCT-116 colon): > 100 µM
TGI (HCT-15 colon): > 100 µM
TGI (HL-60(TB) leukemia): > 100 µM
TGI (HOP-18 NSCLC): > 100 µM
TGI (HOP-62 NSCLC): > 100 µM
TGI (HOP-92 NSCLC): > 100 µM
TGI (HT29 colon): > 100 µM
TGI (IGROV1 ovarian): > 100 µM
TGI (K-562 leukemia): > 100 µM
TGI (KM12 colon): > 100 µM
TGI (KM20L2 colon): > 100 µM
TGI (LOX IMVI melanoma): > 100 µM
TGI (LXFL 529 NSCLC): > 100 µM
TGI (M14 melanoma): > 100 µM
TGI (M19-MEL melanoma): > 100 µM
TGI (MALME-3M melanoma): > 100 µM
TGI (MOLT-4 leukemia): > 100 µM
TGI (NCI-H226 lung): > 100 µM
TGI (NCI-H23 lung): > 100 µM
TGI (NCI-H460 lung): > 100 µM
TGI (NCI-H522 lung): > 100 µM
TGI (OVCAR-3 ovarian): > 100 µM
TGI (OVCAR-4 ovarian): > 100 µM
TGI (OVCAR-5 ovarian): > 100 µM
TGI (OVCAR-8 ovarian): > 100 µM
TGI (RPMI-8226 leukemia): > 100 µM
TGI (SF-268 CNS): > 100 µM
TGI (SF-295 CNS): > 100 µM
TGI (SF-539 CNS): > 100 µM
TGI (SK-MEL-2 melanoma): > 100 µM
TGI (SK-MEL-28 melanoma): > 100 µM
TGI (SK-MEL-5 melanoma): > 100 µM
TGI (SK-OV-3 ovarian): > 100 µM
TGI (SN12C renal): > 100 µM
TGI (SNB-19 CNS): > 100 µM
TGI (SNB-75 CNS): > 100 µM
TGI (SR leukemia): > 100 µM
TGI (SW-620 colon): > 100 µM
TGI (TK-10 renal): > 100 µM
TGI (U251 CNS): > 100 µM
TGI (UACC-257 melanoma): > 100 µM
TGI (UACC-62 melanoma): > 100 µM
TGI (UO-31 renal): > 100 µM
